Where no end group is shown, it is not given here.
system: myelin reactive T cells in PBMCs; assay: EAA with positivity by Variance Evaluation Method or CPM Variance Method (clinical trials); assay type: cell-based, human; details: clinical trial population, RR-MS or CIS subjects
Excerpt: The predetermined value may also be calculated using a Variance Evaluation Method as follows: • 1. EAAs may be run on a given patient population (minimum of 120 assays from 120 unique subjects) • 2. A “negative population” may be created by averaging all SI values<2.5 • 3. The Standard Deviation (SD) may be calculated for each peptide • 4. The following for each peptide may be then be calculated: • a. Average+1SD • b. Average+2SD • c. Average+3SD • 5. The following SIs may be considered above the predetermined value: • a. SI greater than or equal to the average+3SD • b. Any SI greater than or equal to 2.5
The predetermined value may also be evaluated using a Counts per Minute (CPM) Variance Method. This algorithm may set a comprehensive cutoff for all peptides within a given assay. It may be calculated as follows: • 1. EAAs may be run and the CPM for all control (media only, no antigen) wells averaged. • 2. The SD for CPM of the control wells may then be calculated. • 3. The following may then be calculated for the control wells: • a. Average+1SD • b. Average+2SD • c. Average+3SD • 4. Any peptide with an average CPM greater than or equal to the average+3SD of the control wells may be considered above the predetermined value.
Any peptide, either analyzed in an individual well or as averaged over wells run in triplicate, with an SI≧2.5, an SI≧average+3SD by the Variance Evaluation Method, or an SI≧average+3SD by the CPM variance method may be considered above the predetermined value, which may indicate a T cell(s) positive for reactivity to a peptide.
The peptides of Example 3 have been tested in 429 EAAs in clinical trials as follows. […] Pre-Vaccine EAAs have 158 positive out of 387 assays (40.8%), with Relapse Remitting MS patients (RRMS) showing 150 positive of 368 assays (40.8%), and Clinically Isolated Syndrome (CIS) patients showing 8 positive of 19 assays (42.1%).
Over the course of 6 months a study was conducted with 120 subjects meeting the criteria for the clinical trial.
The above mentioned population of subjects was evaluated by EAA using the Variance Evaluation Method and CPM Variance Method as described above, and deemed eligible for vaccine production. Of the 120 attempts to manufacture vaccine, there were 2 shipping failures (blood was not received within our stated criteria), 1 culture was lost to contamination and 5 samples arrived with low cell volume/yield. Of the remaining 112 subjects, vaccine was successfully generated in 89 subjects, with 22 still in production (98.9% of eligible samples, 92.5% of all samples completed). From this, a positive EAA was deemed predictive of the ability to manufacture a vaccine to therapeutic dose by methods disclosed herein.

| Substance | # of Subjects (frequency of identification) | % of Subjects (frequency of identification) [%] |
| --- | --- | --- |
| FAVLKLMGRGTKF [PLP67] | 5 | 4.2 |
| MOGm2: mix of MOG 3 and MOG 4 (chain 1 RHPIRALVGDEVELPC; chain 2 RALVGDEVELPCRISP) | 6 | 5.0 |
| MOGm3: mix of MOG 5 and MOG 6 (chain 1 GDEVELPCRISPGKNA; chain 2 ELPCRISPGKNATGME) | 4 | 3.4 |
| MOGm4: mix of MOG 7 and MOG 8 (chain 1 RISPGKNATGMEVGWY; chain 2 GKNATXMEVGWYRPPF; X not resolved here; also: mixture of MOG 7 and MOG 8) | 3 | 2.5 |
| MOGm5: mix of MOG 9 and MOG 10 (chain 1 TGMEVGWYRPPFSRVV; chain 2 VGWYRPPFSRVVHLYR) | 8 | 6.7 |
| MOGm7: mix of MOG 13 and MOG 14 (chain 1 HLYRNGKDQDGDQAPE; chain 2 NGKDQDGDQAPEYRGR) | 5 | 4.2 |
| MOGm19: mix of MOG 37 and MOG 38 (chain 1 VFLCLQYRLRGKLRAE; chain 2 LQYRLRGKLRAEIENL) | 6 | 5.0 |
| MOGm20: mix of MOG 39 and MOG 40 (chain 1 LRGKLRAEIENLHRTF; chain 2 LRAEIENLHRTFDPHF) | 1 | 0.8 |
| MOGm21: mix of MOG 41 and MOG 42 (chain 1 IENLHRTFDPHFLRVP; chain 2 HRTFDPHFLRVPCWKI) | 40 | 33.6 |
| MOGm22: mix of MOG 43 and MOG 44 (chain 1 DPHFLRVPCWKITLFV; chain 2 LRVPCWKITLFVIVPV) | 2 | 1.7 |
| MOGm23: mix of MOG 45 and MOG 46 (chain 1 CWKITLFVIVPVLGPL; chain 2 TLFVIVPVLGPLVALI) | 20 | 16.8 |
| MOGm24: mix of MOG 47 and MOG 48 (chain 1 IVPVLGPLVALIICYN; chain 2 LGPLVALIICYNWLHR) | 15 | 12.6 |
| MOGm26: mix of MOG 51 and MOG 52 (chain 1 WLHRRLAGQFLEELRN; chain 2 RLAGQFLEELRNPF) | 9 | 7.6 |
| PLPm4: mix of PLP 7 and PLP 8 (chain 1 CFFGVALFCGCGHEAL; chain 2 VALFCGCGHEALTGTE) | 26 | 21.8 |
| PLPm6: mix of PLP 11 and PLP 12 (chain 1 TGTEKLIETYFSKNYQ; chain 2 KLIETYFSKNYQDYEY) | 4 | 3.4 |
| PLPm11: mix of PLP 21 and PLP 22 (chain 1 LYGALLLAEGFYTTGA; chain 2 LLLAEGFYTTGAVRQI) | 4 | 3.4 |
| PLPm12: mix of PLP 23 and PLP 24 (chain 1 EGFYTTGAVRQIFGDY; chain 2 TTGAVRQIFGDYKTTI) | 1 | 0.8 |
| PLPm13: mix of PLP 25 and PLP 26 (chain 1 VRQIFGDYKTTICGKG; chain 2 FGDYKTTICGKGLSAT) | 3 | 2.5 |
| PLPm19: mix of PLP 37 and PLP 38 (chain 1 WLGHPDKFVGITYALT; chain 2 PDKFVGITYALTVVWL) | 11 | 9.2 |

From patent publication US20100003228A1, “T-CELL VACCINE” (priority 2006, published 2010)
